# Patent publication US8956824B2, “Methods for identifying allosteric modulators of ship polypeptides” (British Columbia Cancer Agency Branch, priority 2006, dated 2015)
# “Also recorded” adds a separate entry of the source.
# Key:
# [1] = system: SHIP1+/+ and SHIP1−/− BMMCs; test: Intracellular signaling after FcεR1 crosslinking in BMMCs (immunoblot); type: cell-based, mouse; settings: 10 μg/ml, 30 min; 20 ng/ml DNP-HSA 5 min
# Experimental: Stimulation of BMMCs by FcεR1 crosslinking. SHIP1+/+ and SHIP1−/− BMMCs were pre-loaded overnight in BMMC medium lacking IL-3 with 0.1 μg/ml anti-DNP IgE (SPE-7, Sigma, Oakville, Ont). For calcium flux measurements, the cells were incubated with 2 μM fura 2-acetoxymethyl ester (Molecular Probes, Eugene, Oreg.) in Tyrode's buffer at 23° C. for 45 min. The cells were then washed and incubated in the presence of vehicle control, LY294002 or AQX-016A 30 min prior to stimulation with the indicated concentration of DNP-human serum albumin (DNP-HSA). Calcium influx was then monitored by spectrofluorometry as described previously (19). Experiments were repeated at least 3 times. For analysis of intracellular signaling, cells were pre-loaded with anti-DNP IgE as above, pre-treated with AQX-016A or buffer control for 30 min at 37° C. and stimulated with 20 ng/ml DNP-HSA for 5 min. Total cell lysates were then prepared and analyzed for phospho-PKB, phospho-p38MAPK, phospho-MAPK, Grb-2 (Cell Signalling, Mississauga, Ont) and SHIP1 (18) by immunoblot analysis as described previously (20). Results are representative of 3 independent experiments.
# LNCaP cells = test: PKB phosphorylation in LNCaP cells; type: cell-based; settings: 30 min treatment; cells do not express SHIP1
# Experimental: The non-hemopoietic, prostate cancer LnCAP cell line was treated with AQX-016A or LY294002 for 30 min and cell lysates analyzed for phospho-PKB-Thr 308 or phospho-PKB 473 as described in the Examples. AQX-016A (Molecular Weight 328.24) concentration is indicated in μM.
# SHIP1 C2 domain = biological target: T1, SHIP1 C2 domain (Mus musculus, UniProt Q9ES52); test: Scintillation proximity assay, C2 domain; type: binding; settings: C2 domain 10 nM, 5 μCi
# T1 construct: Recombinant SHIP1 C2 domain (amino acid residues 725 to 863); made in house; host or cells: E. coli, pET28C
# T1 sequence (Q9ES52 725-863): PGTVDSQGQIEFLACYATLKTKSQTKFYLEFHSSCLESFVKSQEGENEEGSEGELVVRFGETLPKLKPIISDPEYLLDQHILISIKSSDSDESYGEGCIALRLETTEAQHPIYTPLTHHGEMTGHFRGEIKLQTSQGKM
# Experimental: (§1) Scintillation Proximity Assays AQX-MN100 was radiolabeled with tritium by GE Healthcare (Piscataway, N.J.) to a specific activity of 42 Ci/mmole. Copper chelate (His-Tag) YSi YSi SPA Scintillation Beads (GE Healthcare ,Piscataway, NJ) were diluted in 0.25% BSA/TBS to 1.5 mg/mL and recombinant, His6-tagged protein added at the indicated concentrations: wild-type (1 pM), ΔC2 SHIP enzyme (1 pM) or C2 domain (10 nM). Protein was allowed to bind 1 h at 23° C., and 250 μg of beads were aliquoted per well of a 96-well plate. 5 μCi of [3H]-AQX-MN100 was added per well, the plate gently agitated for 30 min and the amount of bead associated radioactivity quantified by counting in a Wallac BETAPLATE™ plate scintillation counter. Results are representative of 3 independent experiments.
# wild-type SHIP1 enzyme = biological target: T2, wild-type SHIP1 enzyme (Mus musculus, UniProt Q9ES52); test: Scintillation proximity assay, wild-type SHIP1; type: binding; settings: 5 μCi
# T2 construct: Full length, wild-type SHIP1 enzyme (wt); made in house; host or cells: 293T cells, transient transfection with pME18S-His-SHIP
# T2 sequence (Q9ES52 1-1191): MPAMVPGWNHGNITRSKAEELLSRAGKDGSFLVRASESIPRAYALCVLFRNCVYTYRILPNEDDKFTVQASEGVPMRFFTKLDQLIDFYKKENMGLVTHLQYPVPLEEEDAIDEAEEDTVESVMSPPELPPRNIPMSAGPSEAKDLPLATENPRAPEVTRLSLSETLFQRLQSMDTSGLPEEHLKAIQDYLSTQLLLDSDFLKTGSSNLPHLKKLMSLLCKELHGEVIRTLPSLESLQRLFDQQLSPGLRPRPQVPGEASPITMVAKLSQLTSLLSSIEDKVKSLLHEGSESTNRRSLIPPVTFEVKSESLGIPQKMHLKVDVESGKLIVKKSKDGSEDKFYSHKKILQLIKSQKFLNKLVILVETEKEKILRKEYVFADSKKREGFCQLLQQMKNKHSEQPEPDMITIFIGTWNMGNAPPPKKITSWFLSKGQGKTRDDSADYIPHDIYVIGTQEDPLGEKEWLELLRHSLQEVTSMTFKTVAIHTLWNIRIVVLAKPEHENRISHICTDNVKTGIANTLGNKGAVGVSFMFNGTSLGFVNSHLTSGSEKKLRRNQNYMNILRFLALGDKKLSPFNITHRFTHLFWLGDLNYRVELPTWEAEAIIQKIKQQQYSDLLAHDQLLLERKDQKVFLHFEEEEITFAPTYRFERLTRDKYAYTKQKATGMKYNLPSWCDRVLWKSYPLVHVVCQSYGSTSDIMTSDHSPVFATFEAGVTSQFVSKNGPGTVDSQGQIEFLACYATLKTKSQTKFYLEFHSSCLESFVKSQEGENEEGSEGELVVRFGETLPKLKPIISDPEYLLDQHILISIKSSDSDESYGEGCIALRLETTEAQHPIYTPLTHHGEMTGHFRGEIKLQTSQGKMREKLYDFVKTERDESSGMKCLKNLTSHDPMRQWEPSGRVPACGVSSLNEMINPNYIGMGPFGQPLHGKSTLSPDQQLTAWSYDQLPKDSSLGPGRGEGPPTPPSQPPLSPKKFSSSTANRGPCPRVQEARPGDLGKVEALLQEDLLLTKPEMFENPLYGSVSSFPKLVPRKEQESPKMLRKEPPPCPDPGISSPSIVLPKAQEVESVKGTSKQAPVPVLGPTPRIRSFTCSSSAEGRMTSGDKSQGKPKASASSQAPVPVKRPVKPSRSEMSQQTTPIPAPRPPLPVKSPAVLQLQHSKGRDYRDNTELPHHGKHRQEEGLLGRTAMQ
# Experimental: as §1
SMILES,"phosphorylation of PKB, p38MAPK and ERK, SHIP1+/+ vs SHIP1−/− BMMCs [1]",PKB phosphorylation in LNCaP cells (LNCaP cells),binding of [3H]-AQX-MN100 to recombinant C2 domain (SHIP1 C2 domain),binding of [3H]-AQX-MN100 to wild-type SHIP1 (wild-type SHIP1 enzyme)
Cc1cc(O)c(O)c2c1[C@]1(C)CC[C@H]3C(C)(C)CCC[C@]3(C)[C@H]1C2 [AQX-016A],"inhibited the phosphorylation of PKB, p38MAPK and ERK in SHIP1+/+ but not in SHIP1−/−",had no effect; also recorded: but not AQX-016A inhibits PKB phosphorylation,,
Cc1cc(O)cc2c1[C@]1(C)CC[C@H]3C(C)(C)CCC[C@]3(C)[C@H]1C2 [AQX-MN100],,,could directly bind; also recorded: reproducibly observed to bound; also recorded: binds,binds to wild-type SHIP1
